Patent publication US20260365692A1, “COMPOSITIONS COMPRISING PROTEINS DISSOLVED IN FLUORINATED SOLVENTS, AND METHODS OF MAKING AND USING THE SAME” (priority 2022, published 2026)

How the values were obtained:
[1] = test system: tested proteins; assay: Induction of non-native protein secondary structure
Protocol: (§1) To explore PFNA-mediated changes in protein structure, dose-response circular dichroism (CD) studies were performed (FIG. 14A-14G). […] Remarkably, these structural changes endured even at sub-stoichiometric PFNA:protein ratios (see 0.001 mM PFNA in […]; protein concentration was constant at 0.01 mM).
Prior studies have shown ≥15 vol % of TFE in water, which represents a 2M total concentration, was required to induce protein structural transitions. […] In addition, PFNA appeared to favor modulation of […] structures over α-helices, which can be interpreted by monitoring changes in both ellipticity at 216 nm (FIG. 14H) and percentage of secondary structural motifs (FIG. 14I) relative to the native protein. […] The dose-dependent reduction in the signal after analyte injection may have been due to conformational change of the target protein, as has been observed in prior studies.

[2] = molecular target: BSA (Bos taurus, UniProt P02769); assay: 19F NMR of PFNA with BSA; format: binding, bovine
Sequence of BSA (P02769 25-607): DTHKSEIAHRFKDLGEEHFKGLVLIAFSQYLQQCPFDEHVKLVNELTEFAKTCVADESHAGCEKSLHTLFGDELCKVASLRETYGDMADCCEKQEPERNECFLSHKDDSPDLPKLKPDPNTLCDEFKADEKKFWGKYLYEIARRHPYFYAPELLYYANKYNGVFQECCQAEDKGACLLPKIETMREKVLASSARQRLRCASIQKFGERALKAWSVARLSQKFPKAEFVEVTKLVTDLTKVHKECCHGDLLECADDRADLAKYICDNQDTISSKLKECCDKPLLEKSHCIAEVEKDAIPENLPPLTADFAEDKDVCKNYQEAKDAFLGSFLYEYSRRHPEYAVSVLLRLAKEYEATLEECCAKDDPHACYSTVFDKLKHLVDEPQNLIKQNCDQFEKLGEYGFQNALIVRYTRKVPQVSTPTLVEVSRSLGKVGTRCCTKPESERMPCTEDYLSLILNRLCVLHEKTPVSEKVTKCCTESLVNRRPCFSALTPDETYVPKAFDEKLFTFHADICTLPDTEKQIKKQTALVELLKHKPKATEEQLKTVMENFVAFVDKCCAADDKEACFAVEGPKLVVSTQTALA
Text: This further supported the conclusion that, like TFE, adsorption of PFNA to protein surfaces aligned the fluorinated tail parallel to the solvent accessible exterior, with further stabilization via F . . . H bonding with surface N—H groups (FIG. 12, FIGS. 12A-12E, and FIG. 13). This ultimately generated the fluorine rich coating that altered water accessibility and promoted secondary structure.

[3] = test system: A549 cells; assay: Protein uptake in A549 cells, GFP; format: cell-based, human; conditions: PFNA, 24-hour exposure
Protocol: FIGS. 17A-17B depict the uptake of GFP in human lung A549 cells after 2 and 24 hours of incubation in the absence/presence of PFNA. Results are shown in relative fluorescence units (RFU).
Multiplexed in vitro assays were employed to probe the influence of PFNA interactions on protein uptake and transport in cells. A549 and PC9 human lung cells were prioritized for these assays given that pulmonary tissue is a primary site of perfluoroalkyl bioaccumulation in humans (Reference: 63). Before initiating experiments, cellular toxicity assays established a maximum tolerated dose of PFNA to avoid confounding protein transport experiments with substantive cell death. Protein uptake was then studied using green fluorescent protein (GFP) and bovine serum albumin (BSACy5) as model biologics that employ non-specific pinocytic mechanisms for cellular entry.

[4] = test system: rabbit serum IgG; assay: Circular dichroism with PFNA, rabbit serum IgG; conditions: 0.001-1 mM PFNA
Text: FIGS. 14A-14L depict circular dichroism spectra of Hb (FIG. 14A), GFP (FIG. 14B), BSA (FIG. 14C), β-Gal (FIG. 14D), rabbit serum IgG (FIG. 14E), transferrin (FIG. 14F), and urease (FIG. 14G) in the absence (black line) or presence (dashed lines) of PFNA. Increasing dash sequence indicated higher concentration of PFNA. FIG. 14H: Change in molar ellipticity at 216 nm (Δθ216) of PFNA-treated proteins, relative to native controls, as a function of increasing ligand concentration. FIG. 14I: Percentage change in secondary structural motifs of Hb, β-Gal and IgG between the native protein and 1 mM PFNA treated samples. β-sheet structures were further differentiated into parallel and antiparallel conformations. Hb, β-Gal and IgG were prioritized for analysis based on their significant spectral shift in the presence of 1 mM PFNA. FIGS. 14J-14L: Sensograms for BSA (FIG. 14J), β-gal (FIG. 14K), and IgG (FIG. 14L) showing relative response (R.U.) at 10, 25, 50, 75, and 100 μM.
as §1

[5] = Acute toxicity in C57BL/6J mice (Example 3); format: in vivo; conditions: 24 h
Protocol: Two groups (n=5) of C57BL/6J mice received […] of 10 μM solutions of β-Gal that was either 1) prepared in sterile PBS or 2) dissolved in PFOc (1 mM PFNA) and extracted into sterile PBS. Due to the large solution volumes given (150 μL, ~15% of mouse blood volume), PFOc dispersed proteins were extracted into sterile saline before injection to avoid hyponatremia. Samples were administered by tail vein injection.
To assess acute toxicity, animals were intravenously administered solutions of β-Gal either prepared in sterile PBS or dissolved in PFOc (1 mM PFNA) and extracted into sterile PBS, as described above. After 24 hours, mice were sacrificed, and blood was collected via cardiac puncture. A minimum of 100 μL of whole blood was added to EDTA for complete blood count. The remainder was centrifuged (1000 rcf, 10 minutes) to isolate serum for chemistry analysis. Tissues (lungs, livers, kidneys, and spleens) from euthanized animals were collected and stored in 10% buffered-formalin immediately after euthanasia. […] from each organ were mounted onto glass slides and stained with Hematoxylin and Eosin (H&E). Four random fields in each section were examined under a microscope at 5× and 40× magnification. Tissue relevant clinical features were compared across samples. […]

[6] = Thermal stability of proteins in PFNA/PFOc (bioactivity after heating); format: physicochemical; conditions: PFNA/PFOc mixture compared to aqueous solution, 30 min heating
Protocol: FIGS. 16A-16C depict that the thermal stability of β-gal, GFP, and Trypsin is enhanced when the proteins are dissolved in a PFNA/PFOc mixture, compared to aqueous solutions of the proteins.
PFNA enhanced thermal stability in PFOc Differential scanning calorimetry (DSC) measurements were performed on 5 test proteins dissolved in either PBS (Aq.) or Perfluorooctane (PFOc). PFNA dispersant was added only for the PFOc conditions. DSC was performed at 2 °C/min ramp from 40 °C-100 °C. Melting temperature (Tm) was determined based on positive inflection of heat capacity curve, indicating protein unfolding (FIG. 15). Change in melting temperature (ATm (°C)) represented the difference in Tm between aqueous (Aq.) and PFOc data. Tm for GFP in PFOc could not be achieved at the maximum temperature of 100 °C for the DSC experiments. Each protein was dissolved in PBS (Aq.) or PFNA/PFOc mixture. Dissolved proteins were heated to 75 °C (β-gal), 90 °C (GFP) or 80 °C (Trypsin); treatment temperatures were determined based on aqueous melting temperatures for each protein. Positive controls were maintained at room temperature (25 °C). […] Bioactivity was evaluated then via fluorescence measurements for GFP, or using colorimetric substrate conversion assays (ONPG for β-gal, BAEE for Trypsin). […]

Compound | concentration sufficient to induce ordered non-native structure ([1]; many of the tested proteins) [mM] | increase in potency in inducing non-native protein secondary structure relative to TFE ([1]; relative to trifluoroethanol) | 19F NMR peak change upon interaction [2] | uptake of GFP [3] | CD structural change, rabbit serum IgG [4] | BUN, RBC, HGB, HCT versus sham saline injection control ([5]; PFOc β-Gal, i.v.) | histologic organ analyses ([5]; lung, kidney, liver, spleen, β-Gal from PFOc) | thermal stability [6]
O=C(O)C(F)(F)C(F)(F)C(F)(F)C(F)(F)C(F)(F)C(F)(F)C(F)(F)C(F)(F)F [Compound 7, perfluoronanonic acid] | 0.001 | 10^6 | broadening of PFNA's peaks | nominal increase in uptake | marked increase in β-sheet content |  |  | 
β-Gal: β-Galactosidase (β-Gal), dissolved in PBS/saline or dispersed in PFOc |  |  |  |  |  | none of these markers were statistically different | did not identify signs of necrosis, cellular infiltration, inflammation, or hemorrhage | enhanced
